The source made the active and inactive calls.
Key:
Vero [1] = experiment: cells; assay type: functional; conditions: Chlorocebus sabaeus
Vero [2] = experiment: cells; assay type: functional, cell-based; conditions: Chlorocebus sabaeus
[3] = molecular target: 5-hydroxytryptamine receptor 5A (Homo sapiens, UniProt P47898); experiment: Counterscreen for agonists of OPRM1-OPRD1 heterodimerization: luminescence-based cell-based high throughput dose response assay to identify agonists of 5-hydroxytryptamine (serotonin) 5A receptor (HTR5A). [Related pubchem assays (depositor defined):AID504326, AID504355, AID504692, AID504904, AID504905]; assay type: functional
5-hydroxytryptamine receptor 5A, sequence (P47898 whole entry): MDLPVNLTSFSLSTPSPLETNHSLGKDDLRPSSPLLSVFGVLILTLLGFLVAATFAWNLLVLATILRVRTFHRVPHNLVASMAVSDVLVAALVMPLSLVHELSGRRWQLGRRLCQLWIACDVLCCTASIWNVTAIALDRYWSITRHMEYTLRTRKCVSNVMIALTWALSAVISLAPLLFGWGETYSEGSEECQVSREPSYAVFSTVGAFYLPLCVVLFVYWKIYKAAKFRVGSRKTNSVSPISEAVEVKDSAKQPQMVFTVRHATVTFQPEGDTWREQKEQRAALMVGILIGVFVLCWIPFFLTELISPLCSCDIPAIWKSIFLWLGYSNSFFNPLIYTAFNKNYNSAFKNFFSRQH

[4] = molecular target: Delta-type opioid receptor (Homo sapiens, UniProt P41143); experiment: Counterscreen for agonists of heterodimerization of the mu 1 (OPRM1) and delta 1 (OPRD1) opioid receptors: Luminescence-based cell-based high throughput dose response assay to identify agonists of OPRD1 homodimerization. [Related pubchem assays (depositor defined):AID504326, AID504355, AID504692, AID504904, AID504905]; assay type: functional
Delta-type opioid receptor, sequence (P41143 whole entry): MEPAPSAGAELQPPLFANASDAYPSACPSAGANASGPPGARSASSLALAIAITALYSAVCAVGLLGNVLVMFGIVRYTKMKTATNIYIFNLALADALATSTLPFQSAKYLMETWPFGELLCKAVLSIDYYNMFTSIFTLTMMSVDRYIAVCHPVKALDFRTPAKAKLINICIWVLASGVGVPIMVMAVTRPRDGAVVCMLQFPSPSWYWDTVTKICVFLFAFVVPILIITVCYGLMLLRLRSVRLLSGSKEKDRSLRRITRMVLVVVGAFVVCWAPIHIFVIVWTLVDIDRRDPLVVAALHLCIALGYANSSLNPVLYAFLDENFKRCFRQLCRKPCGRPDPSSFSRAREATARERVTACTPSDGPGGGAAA

Mu-type opioid receptor = Mu-type opioid receptor (Homo sapiens, UniProt P35372); experiment: Counterscreen for agonists of heterodimerization of the mu 1 (OPRM1) and delta 1 (OPRD1) opioid receptors: Luminescence-based cell-based high throughput dose response assay to identify agonists of OPRM1 homodimerization.; assay type: functional;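 note: U2OS cells expressing OPRM1 and beta-arrestin as split beta-galactosidase partners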
Mu-type opioid receptor, sequence (P35372 whole entry): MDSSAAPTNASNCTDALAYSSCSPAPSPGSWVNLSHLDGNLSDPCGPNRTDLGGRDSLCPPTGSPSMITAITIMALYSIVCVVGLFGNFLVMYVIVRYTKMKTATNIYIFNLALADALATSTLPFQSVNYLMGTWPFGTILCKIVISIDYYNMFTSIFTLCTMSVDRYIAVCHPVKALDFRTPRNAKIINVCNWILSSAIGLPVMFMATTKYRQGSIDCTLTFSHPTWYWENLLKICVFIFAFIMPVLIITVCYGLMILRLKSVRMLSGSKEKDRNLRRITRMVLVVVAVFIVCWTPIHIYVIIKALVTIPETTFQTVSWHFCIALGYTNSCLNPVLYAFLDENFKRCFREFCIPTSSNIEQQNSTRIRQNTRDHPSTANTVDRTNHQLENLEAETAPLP

[5] = molecular target: Lysine-specific demethylase 4C (Homo sapiens, UniProt Q9H3R0); experiment: inhibition of JMJD2C H3K9me3 demethylation – biochemical, DELFIA europium, cherry-picked samples, dose response (AID 488835); assay type: functional
Lysine-specific demethylase 4C, sequence (Q9H3R0 whole entry): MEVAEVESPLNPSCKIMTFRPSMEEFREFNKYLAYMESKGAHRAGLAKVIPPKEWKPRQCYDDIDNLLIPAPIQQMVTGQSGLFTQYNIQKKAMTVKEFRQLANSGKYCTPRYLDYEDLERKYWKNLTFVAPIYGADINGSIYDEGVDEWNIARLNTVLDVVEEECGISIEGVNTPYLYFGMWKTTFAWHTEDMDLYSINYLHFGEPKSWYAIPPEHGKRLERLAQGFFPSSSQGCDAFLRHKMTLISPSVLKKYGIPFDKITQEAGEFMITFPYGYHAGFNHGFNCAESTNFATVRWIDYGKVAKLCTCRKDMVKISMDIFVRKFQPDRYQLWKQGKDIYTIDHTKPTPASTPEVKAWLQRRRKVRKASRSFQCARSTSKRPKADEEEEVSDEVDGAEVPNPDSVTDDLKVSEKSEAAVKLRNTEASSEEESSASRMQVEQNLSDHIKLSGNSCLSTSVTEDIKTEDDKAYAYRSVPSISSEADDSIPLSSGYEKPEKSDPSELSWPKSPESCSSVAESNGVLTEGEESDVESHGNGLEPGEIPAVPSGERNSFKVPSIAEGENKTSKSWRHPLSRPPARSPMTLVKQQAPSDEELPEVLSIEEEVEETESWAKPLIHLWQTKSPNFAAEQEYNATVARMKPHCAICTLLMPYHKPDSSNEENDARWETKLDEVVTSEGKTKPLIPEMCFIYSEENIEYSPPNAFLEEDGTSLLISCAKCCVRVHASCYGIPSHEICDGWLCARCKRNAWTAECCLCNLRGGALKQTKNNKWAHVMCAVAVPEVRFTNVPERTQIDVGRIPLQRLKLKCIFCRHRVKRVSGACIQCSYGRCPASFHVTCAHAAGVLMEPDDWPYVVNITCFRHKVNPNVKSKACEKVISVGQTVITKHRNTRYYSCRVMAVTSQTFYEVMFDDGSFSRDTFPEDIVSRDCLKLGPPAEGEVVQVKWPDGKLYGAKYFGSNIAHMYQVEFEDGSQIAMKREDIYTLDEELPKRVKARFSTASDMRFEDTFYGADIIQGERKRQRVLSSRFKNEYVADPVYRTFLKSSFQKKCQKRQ

INS1 = experiment: beta-cell survival under cytokine stress – INS-1E, ATP luminescence, dry powder, dose response (AID 488844); assay type: functional, cell-based; conditions: Rattus norvegicus

SMILES	EC50 [3]	EC50 [4]	EC50 (Mu-type opioid receptor)	other results
COc1cccc(/C=C/C(=O)c2ccc3c(c2)OCO3)c1OC	–	–	–	CC50 (Vero [1]): > 25 µM (active); IC50 (Vero [2]): > 25 µM (active)
CCc1ccc(NC(=O)N(CCCN2CCOCC2)Cc2cccs2)cc1	> 92.5 µM (inactive)	> 92.5 µM (inactive)	> 92.5 µM (inactive)	–
CCOc1ccc(N2C(=O)CC(N(O)c3ccccc3)C2=O)cc1 (stereo not given)	–	–	–	AC50 [5]: 12.7 µM (active)
COc1ccc(S(=O)(=O)N(C)C[C@H]2Oc3c(NC(=O)Nc4cccc5ccccc45)cccc3C(=O)N([C@H](C)CO)C[C@H]2C)cc1	–	–	–	AC50 (INS1): 41.5 µM (active)
CC(=O)Nc1ccc(S(=O)(=O)/N=C2\C(=O)c3ccccc3C(O)=C2N2CCN(Cc3ccccc3)CC2)cc1	> 92.5 µM (inactive)	> 92.5 µM (inactive)	> 92.5 µM (inactive)	–
